Entries after “also recorded” stand apart in the source; their conditions may differ. One block for each compound: values may come before it.
How the values were obtained:
IL-6 = experiment: Ex vivo serum IL-6 quantification; assay type: in vivo, rat
Procedure: (§1) At the end of the study, animals fasted for 12 h and were taken to a humane endpoint, where blood samples were obtained. These were kept at room temperature for 30 min and then centrifuged at 4000 RPM for 15 min at 4 °C. Finally, the serum was used to perform 24-element blood chemistry and quantify Trolox-equivalent TAC [86], TNF-α [87], and IL-6 levels using commercial kits from Merck (Darmstadt, Germany), Sigma-Aldrich (St. Louis, MO, USA), Cat. No. MAK334-1KT, RAB0479-1KT, and RAB0311-1KT, respectively. In addition, insulin was quantified using the Rat Ins1/Insulin ELISA Kit, from Sigma-Aldrich, No. Cat. RAB0904-1KT [89] to determine the HOMA-IR index. All kits were performed according to the manufacturer’s instructions without modifications.

[1] = tested on: STZ-HFD-induced T2D Wistar rats; experiment: Ex vivo serum total antioxidant capacity (Trolox equivalent); assay type: in vivo, rat
Procedure: as §1

[2] = tested on: STZ-HFD-induced T2D Wistar rats; experiment: Subchronic evaluation in STZ-HFD-induced T2D model; assay type: in vivo, rat; set-up: HbA1c: unit not given here
Procedure: In vivo experiments were conducted in an acute and a subchronic model, where Wistar rats (180–220 g) were used. The study covered a total period of 10 weeks and was carried out under the Mexican Standard, and the “Guide for the Care and Use of Laboratory Animals” of the National Research Council and Health Institutes was followed.
At first, animals were housed in polypropylene cages under conditions of controlled temperature (20–25 °C), relative humidity (36–60%), and light/dark cycles, with water ad libitum. Before starting the experiment, they were given a one-week acclimatization period to adapt to their new habitat. Once finalized, animals were fed an HFD for 3 weeks to generate insulin resistance.
After this period, the animals fasted for 12 h and then were administered intraperitoneally with a single dose of 35 mg/Kg of STZ dissolved in a buffer of 0.1 M citrate, pH 4.5 (prepared on the same day of administration). Once administered, the hypercaloric diet was maintained, and 10% sucrose solution was placed on demand for 2 days.
One week after administration, postprandial blood glucose levels were measured by venipuncture using a glucometer. Those animals that maintained a glucose level between 200 and 400 mg/dL were included in the study.
(§2) Treatments were administered daily as described above, adjusting the dose according to the weight of the individuals. Fasting glucose levels (6 h fast) were monitored every 7 days until the end of treatments at week 10 (Figure 14). Halfway through the last week of treatment, the OGTT was performed, administering a dose of 1.5 g/Kg of glucose orally and subsequently monitoring capillary blood glucose at 0, 15, 30, 60, 90, and 120 min [62]. In addition, a 24-element blood chemistry was measured in a Celercare V automated dry chemistry analyzer (Tianjin MNCHIP Technologies Co., Ltd., Tianjin, China) at the beginning and end of the model. For this purpose, the blood samples were obtained from the tail of the rat.
as §1

[3] = tested on: STZ-HFD-induced T2D Wistar rats; experiment: 24-element blood chemistry in STZ-HFD-induced T2D model; assay type: in vivo, rat; set-up: GGT / TBA / AMY / TG / T-CHOL / GLU: unit not given here; conditions: for ALP / ALT / AST / CK: in U/L (unit assumed); for ALB / GLO / TP: in g/dL (unit assumed); for BUN / CRE / Ca / Mg / P / TBIL / UREA: in mg/dL (unit assumed); for tCO2: in mmol/L (unit assumed); for TP: mean ± SEM, n = 4
Procedure: as §2, §1

TNF-α = experiment: Ex vivo serum TNF-α quantification; assay type: in vivo, rat
Procedure: as §1

[4] = Observed chemical stability of the isolated compound; assay type: physicochemical; conditions: neutral (acid) form
Procedure: Compound 5d was obtained according to the general procedure described. It consists of reacting one molar equivalent of compound 2 with the corresponding carboxylate (L-phenylalanine sodium salt) under refluxing ethanol for 24 h. Under these conditions, the reaction proceeds by nucleophilic attack of the amino group on the carbonimidothioate group of compound 2, with the elimination of gaseous thiomethanol to obtain the sodium salt of SMe-isothiourea 5d, with a yield of 40%. […] Therefore, it was used only as an intermediate for the synthesis of its corresponding methyl ester (8d). The corresponding SMe-isothiureacarbozxylate methyl ester 8d was obtained in 56% yield using one molar equivalent of the SMe-isothiurea sodium salt, with 1.2 equivalents of iodomethane in DMF at room temperature for 24 h, following the general procedure described in the literature. […]
In a flask, L-phenylalanine (202 mg, 1.23 mmol) and NaOH (48.8 mg, 1.2 mmol) were placed in 10 mL of EtOH. […] It was kept at the same temperature for 24 h, and the reaction was monitored with TLC (Hex-AcOEt 7:3). […] Compound 5d was obtained as an acid in the form of a pale white crystal with a yield of 40.0% (182.5 mg, 0.5 mmol) and an mp = 92−94 °C; TLC Rf = 0.44 (Hex-AcOEt 7:3); HPLC tr = 10.7 min; ATR-FTIR νmax (cm^−1): 3155.8, 3067.3, 2925, 2855.6; HRMS (ESI+) 372.0840 m/z calculated for C18H18N3O2S2; found 372.0928 [M + H]^+.

[5] = Table S11, After 5 weeks of treatment
[6] = serum, end of treatment, mean ± SEM, n = 4
[7] = after the induction of T2D, before treatment

A/G ([3]; Final): 1.43 ± 0.05 | AMY ([3]; Final): 405.75 ± 25.93 | BUN/CRE ([3]; Final): 28.00 ± 3.24 | GGT ([3]; Final): 1.25 ± 0.19 | TBA ([3]; Final): 72.60 ± 16.24 | ALP ([3]; Final): 274.00 ± 58.19 | CK ([3]; Final): > 3000 | ALB ([3]; Final): 3.78 ± 0.12 | GLO ([3]; Final): 2.65 ± 0.12 | BUN ([3]; Final): 14.81 ± 1.23 | CRE ([3]; Final): 0.54 ± 0.04 | Ca ([3]; Final): 9.18 ± 0.08 | Mg ([3]; Final): 2.40 ± 0.05 | P ([3]; Final): 8.30 ± 0.47 | TBIL ([3]; Final): 0.16 ± 0.02 | UREA ([3]; Final): 31.58 ± 2.78 | tCO2 ([3]; Final): 18.00 ± 0.41 | TP ([3]; Final): 6.43 ± 0.22 | A/G ([3]; Initial): 1.45 ± 0.03 | AMY ([3]; Initial): 369.75 ± 26.22 | BUN/CRE ([3]; Initial): 25.75 ± 2.59 | GGT ([3]; Initial): 0.80 ± 0.25 | TBA ([3]; Initial): 76.43 ± 13.25 | ALP ([3]; Initial): 271.25 ± 44.69 | CK ([3]; Initial): 509 ± 118.04 | ALB ([3]; Initial): 3.85 ± 0.06 | GLO ([3]; Initial): 2.65 ± 0.10 | BUN ([3]; Initial): 14.22 ± 1.51 | CRE ([3]; Initial): 0.56 ± 0.03 | Ca ([3]; Initial): 9.30 ± 0.20 | Mg ([3]; Initial): 2.09 ± 0.03 | P ([3]; Initial): 7.55 ± 0.87 | TBIL ([3]; Initial): 0.2 ± 0.02 | UREA ([3]; Initial): 30.40 ± 3.28 | tCO2 ([3]; Initial): 13.75 ± 0.85 | TP ([3]; Initial): 6.5 ± 0.15
SMILES: CCc1ccc(CCOc2ccc(CC3SC(=O)NC3=O)cc2)nc1 (centres unmarked) [PGZ, pioglitazone, reference compound]
effect on IL-6 and TNF-α levels (IL-6; IL-6 and TNF-α together): significantly reduced IL-6 and TNF-α levels | IL-6 (IL-6; [5]): 234.25 ± 52.05 pg/mL | IL-6 (IL-6; [6]): 234.25 ± 52.05 pg/mL | effect on total antioxidant capacity (TAC) [1]: partial recovery of TAC | TAC Equivalent to Trolox [1, 5]: 97.75 ± 1.29 µM | TAC Equivalent to Trolox [1, 6]: 97.75 ± 1.29 µM | HOMA-IR ([2]; After 5 weeks of treatment): 2.32 ± 0.407 | R-QUICKI ([2]; After 5 weeks of treatment): 0.339 ± 0.008 | HbA1c ([2]; After 5 weeks of treatment, mean ± SEM, n = 4): 9.633 ± 1.601 | HOMA-IR ([2]; Final (end of 5 weeks treatment), PGZ 30 mg/Kg, 8d 32 mg/Kg, mean ± SEM, n = 4): 2.32 ± 0.41 | HOMA-IR ([2]; Initial (beginning of treatment), PGZ 30 mg/Kg, 8d 32 mg/Kg, mean ± SEM, n = 4): 2.59 ± 0.34 | HOMA-IR [2, 7]: 2.59 ± 0.337 | R-QUICKI [2, 7]: 0.333 ± 0.007 | HbA1c ([2]; after the induction of T2D, before treatment, mean ± SEM, n = 4): 8.433 ± 0.088 | adipogenic effect at necropsy ([2]; after treatment): clear adipogenic effect | polydipsia (water consumption) ([2]; daily oral treatment): decreasing the polydipsia after the first week of treatment | redistribution of adipose tissue from visceral to subcutaneous fat ([2]; necropsy): marked | AST/ALT ([3]; Final): 4.61 ± 0.51 | GLU ([3]; Final): 275.25 ± 84.75 | T-CHOL ([3]; Final): 98.00 ± 5.57 | TG ([3]; Final): 151.00 ± 10.42 | ALT ([3]; Final): 75.75 ± 6.73 | AST ([3]; Final): 343.50 ± 39.59 | AST/ALT ([3]; Initial): 1.99 ± 0.38 | GLU ([3]; Initial): 203.25 ± 19.84 | T-CHOL ([3]; Initial): 81.00 ± 1.96 | TG ([3]; Initial): 108.13 ± 6.46 | ALT ([3]; Initial): 63.5 ± 6.5 | AST ([3]; Initial): 119.25 ± 7.96 | TNF-α (TNF-α; [5]): 3000.53 ± 519.24 pg/mL | TNF-α (TNF-α; [6]): 3000.53 ± 519.24 pg/mL

SMILES: CS/C(=N/c1nc2ccccc2s1)N[C@@H](Cc1ccccc1)C(=O)O [5d, (E)-((benzo[d]thiazol-2-ylimino)(methylthio)methyl)-L-phenylalanine]
chemical stability [4]: decomposes easily under ambient conditions; also recorded: decomposes, even at low temperatures

Source: PMC12388506, “Preclinical Evaluation of 2-Aminobenzothiazole Derivatives: In Silico, In Vitro, and Preliminary In Vivo Studies as Diabetic Treatments and Their Complications” (Molecules, 2025)
